{"source": "patent US9260504B2", "about": "“N- and C-terminal substituted antagonistic analogs of GH-RH” (University of Miami, priority 2008, dated 2016)", "format_in_all_cases": "in vivo", "key": {"[1]": {"system": "PC-3 human hormone-independent prostate cancer", "experiment": "PC-3 human prostate cancer xenografts in nude mice, Experiment 1", "conditions": "10 μg/day s.c., daily for 35 days; means±S.E.", "protocol": "(§1) Male nude mice were implanted s.c. with 3 mm^3 pieces of PC-3 human hormone-independent prostate cancer tissue on both flanks. When tumors reached a volume of approx. 50 mm^3, the mice were divided into 4 experimental groups with 8 to 10 animals in each group and received single daily injections for 35 days as follows: 1. Control (vehicle solution); 2. JMR-132 (10 μg/day s.c.); 3. Peptide 1109 (10 μg/day s.c.); 4. Peptide 11111 (10 μg/day s.c.); Tumor volumes were measured once a week. The experiment was ended on day 35 by sacrificing the mice under Isoflurane anesthesia. Resulting tumors were cleaned, weighed, and snap-frozen until further analyses. Statistical analyses of the measurement results were done by two-tailed t-test, p<0.05 being considered significant. Data are presented as the means±S.E."}, "[2]": {"system": "PC-3 human hormone-independent prostate cancer", "experiment": "PC-3 human prostate cancer xenografts in nude mice, Experiment 2", "protocol": "as §1\nExperiment 2 was similar to Experiment 1. Experiment 2 was started when PC-3 tumors had grown to approximately 50 mm^3 in volume. At this time, the animals were divided into 5 experimental groups with 8 animals in each group, and received single daily injections for 14 days as follows: 1. Control (vehicle solution); 2. JMR-132 (10 μg/day s.c.); 3. Peptide 1109 (5 μg/day s.c.); 4. Peptide 11109 (5 μg/day s.c.); 5. Peptide 11109 (2 μg/day s.c.). Further details of Experiment 2 are the same as for Experiment 1"}, "[3]": {"system": "H-460 human non-small cell lung cancer", "experiment": "H-460 human non-SCLC xenografts in nude mice, Experiment 1", "conditions": "10 μg/day s.c., 28 days; means±S.E.", "protocol": "Male nude mice were implanted s.c. with 3 mm^3 pieces of H-460 human non-SCLC tumor tissue on both flanks. When tumors had grown to a mean volume of approximately 90 mm^3, the mice were randomly assigned into 4 experimental groups with 10 animals in each group and received single daily injections for 28 days as follows: 1. Control (vehicle solution); 2. JMR-132 (10 μg/day s.c.); 3. Peptide 1109 (10 μg/day s.c.); 4. Peptide 11111 (10 μg/day s.c.). Tumor volumes were measured once a week. The experiment was ended on day 28 by sacrificing the mice under Isoflurane anesthesia. Resulting tumors were cleaned, weighed, and snap-frozen until further analyses. Statistical analyses of the measurement results were done by two-tailed t-test, p<0.05 being considered significant. Data are presented as the means±S.E."}, "[4]": {"system": "MDA-MB-231 human estrogen independent breast cancer", "experiment": "MDA-MB-231 human estrogen independent breast cancer xenografts in nude mice", "conditions": "5 μg/day s.c., 28 days", "protocol": "Female nude mice were xenografted s.c. with MDA-MB-231 tumor tissue from donor animals. When tumors had grown to a mean volume of approximately 50 mm^3, the mice were randomly assigned into 2 experimental groups with 10 animals in each group and received single daily injections for 28 days as follows: 1. Control (vehicle solution); 2. Peptide 1109 (5 μg/day s.c.). Tumor volumes were measured once a week. The experiment was ended on day 28 by sacrificing the mice under Isoflurane anesthesia. Resulting tumors were cleaned, weighed, and snap-frozen until further analyses. Statistical analyses of the measurement results were done by two-tailed t-test, p<0.05 being considered significant."}, "[5]": {"system": "NCI-N87 human gastric cancer", "experiment": "NCI-N87 human gastric cancer xenografts in nude mice", "conditions": "10 μg/day s.c.", "protocol": "NCI-N87 cancers were transplanted s.c. into both flank areas of 30 female nude mice. The mice were randomly assigned into 4 experimental groups with 6 to 9 animals in each group and received single daily injections for 77 days as follows: 1. Control (vehicle solution); 2. JMR-132 (10 μg/day s.c.); 3. Peptide 1109 (10 μg/day s.c.); 4. Peptide 11479 (10 μg/day s.c.). Tumor volumes were measured once a week. The experiment was ended on day 77 by sacrificing the mice under Isoflurane anesthesia. Resulting tumors were cleaned, weighed, and snap-frozen until further analyses. Statistical analyses of the measurement results were done by two-tailed t-test, p<0.05 being considered significant. Data are presented as the means±S.E."}, "[6]": {"system": "SK-Hep-1 human hepatocellular cancer", "experiment": "SK-Hep-1 human hepatocellular cancer xenografts in nude mice", "conditions": "for Tumor volume (mm^3) on day 135: means±S.E.; for Tumor weights (mg): tumors removed at autopsy", "protocol": "SK-Hep-1 cancers were transplanted s.c. into both flank areas of 66 female nude mice, and allowed to grow for 47 days before starting the treatment with GH-RH antagonists. The mice were randomly assigned into 4 experimental groups with 8 animals in each group and received single daily injections for 135 days as follows: 1. Control (vehicle solution); 2. JMR-132 (10 μg/day s.c.); 3. Peptide 1109 (5 μg/day s.c.); 4. Peptide 1109 (10 μg/day s.c.). Tumor volumes were measured once a week. The experiment was ended on day 135 by sacrificing the mice under Isoflurane anesthesia. Resulting tumors were cleaned, weighed, and snap-frozen until further analyses. Statistical analyses of the measurement results were done by two-tailed t-test, p<0.05 being considered significant. Data are presented as the means±S.E."}}, "note": "Marks after values point to notes of the source that are not given here.", "data": [{"substance": "[PhAc^0-Tyr^1, D-Arg^2, Cpa^6, Ala^8, Har^9, Tyr(Me)^10, His^11, Abu^15, Glu^17, His^20, Nle^27, D-Arg^28, Har^29]hGH-RH(1-29)NH2 [Peptide 1109]", "values": [{"measurement": "Tumor growth after 5 weeks (%)", "setting": "[1]", "result": "1502 ± 405", "unit": "%"}, {"measurement": "Tumor growth after 2 weeks (%)", "setting": "[2]; 5 μg/day s.c., 14 days", "result": 311, "unit": "%"}, {"measurement": "Inhibition of PC-3 tumor growth compared with reference peptide JMR-132", "setting": "[2]; Peptide 1109 5 μg/day, Peptide 11109 5 and 2 μg/day, JMR-132 10 μg/day, 14 days", "result": "inhibited the growth of PC-3 tumors more potently than reference peptide JMR-132"}, {"measurement": "Inhibition (%)", "setting": "[2]; tumor growth after 2 weeks, 5 μg/day s.c.", "result": 56.58, "unit": "%"}, {"measurement": "Tumor growth after 4 weeks (%)", "setting": "[3]", "result": "1042 ± 181", "unit": "%"}, {"measurement": "Inhibition of the growth of MDA-MB-231 human breast cancers", "setting": "[4]", "result": "about 75%"}, {"measurement": "Number of regressing tumors", "setting": "[5]; 77 days", "result": 6}, {"measurement": "Tumor growth after 77 days (%)", "setting": "[5]; 77 days, means±S.E.", "result": "225 ± 59", "unit": "%"}, {"measurement": "Tumor weights", "setting": "[5]; day 77, means±S.E.", "result": "170 ± 52", "unit": "mg"}, {"measurement": "Tumor doubling time", "setting": "[5]; calculated without the regressing tumors", "result": "93.6 ± 30.7", "unit": "days"}, {"measurement": "Tumors with total regression", "setting": "[6]; 5 μg/day s.c., 135 days", "result": 5}, {"measurement": "Tumor volume (mm^3) on day 135", "setting": "[6]; 5 μg/day s.c., 135 days", "result": "271 ± 98", "unit": "mm^3"}, {"measurement": "Tumor weights (mg)", "setting": "[6]; 5 μg/day s.c.", "result": "565 ± 115 (6) mg"}, {"measurement": "Inhibition of SK-Hep-1 hepatic cancer growth compared with reference peptide JMR-132", "setting": "[6]; 5 μg/day vs JMR-132 10 μg/day, 135 days", "result": "more potently inhibited the growth of SK-Hep-1 hepatic cancers than the reference peptide JMR-132"}, {"measurement": "Tumors with total regression", "setting": "[6]; 10 μg/day s.c., 135 days", "result": 7}, {"measurement": "Tumor volume (mm^3) on day 135", "setting": "[6]; 10 μg/day s.c., 135 days", "result": "200 ± 123* mm^3"}, {"measurement": "Tumor weights (mg)", "setting": "[6]; 10 μg/day s.c.", "result": "605 ± 281 (4) mg"}]}]}
